Laboratory results from patent US20180353445A1, “METHODS AND COMPOSITIONS RELATING TO PROTEASOME INHIBITOR RESISTANCE” (Whitehead Institute for Biomedical Research, priority 2017, published 2018).
Entries after “also recorded” stand apart in the source; their conditions may differ.

How the values were obtained:
[1] = test system: IMR32 (reduced PSMD5) and Kelly neuroblastoma cells; assay: Viability of IMR32 versus Kelly neuroblastoma cells (CellTiter-Glo); assay type: cell-based, human; settings: other experiments, e.g., 0.1 uM
[2] = target: β5-subunit of the proteasome (Homo sapiens, UniProt P28074); settings: cited from earlier work
[3] = test system: T47D cells; assay: Competition co-culture of TurboRFP PSMD2 shRNA and GFP control shRNA T47D cells, FACS/microscopy; assay type: cell-based, human; settings: 5 nM, 48 hours
Protocol: We created two cell lines—one line that expresses red fluorescent protein (turboRFP) and the doxycycline-inducible PSMD2-targeting shRNA and another line that expresses green fluorescent protein (GFP) and a doxycycline-inducible control shRNA (FIG. 6A). First, we induced shRNA expression with doxycycline for 48 hours. After recovery, we mixed shPSMD2-RFP and shControl-GFP cells at different ratios (either 1:1, 1:2, 1:5 or 1:10), adding the cells with reduced PSMD2 as the minority subpopulation. Twenty-four hours after plating, we treated these mixed populations of cells for 48 hours with increasing concentrations of bortezomib (5, 7.5 or 10 nM). We allowed the cells to recover in the absence of bortezomib and then we quantified the red and green cells by FACS analysis (FIG. 6A) and captured representative images by fluorescence microscopy (FIG. 6B),
The experiment described in Example 10 was repeated with minor differences using a panel of different proteasome inhibitors: MLN2238, MLN9708, and oprozomib T47D cells harboring a doxycycline inducible control shRNA (GFP) or a doxycycline-inducible PSMD2 shRNA (TurboRFP) were incubated with doxycycline for 3 days. Cells were collected, counted, and plated at a 1:10 ratio of TurboRFP-expressing PSMD2 shRNA cells/GFP expression control shRNA cells in the absence of Dox. Proteasome inhibitors were added at the specified concentrations and cells were maintained in culture. Cells were allowed to recover in the absence of the proteasome inhibitor and then analyzed by FACS (FIG. 8B, top) or visualized by microscopy (FIG. 8B, bottom). In the absence of proteasome inhibitors, the initial plating ratio of these cells (1:10) was maintained over the duration of the experiment (FIG. 8B). […]
Visualization and FACS analysis of GFP/RFP levels—cells were trypsinized in 100 μL Accumax® solution and further diluted into 100 μl PBSx1. The number of cells with red or areen fluorescent proteins was measured by MACSQuant® VYB according to manufactures protocol. […]

[4] = target: T1, FDX1 (Homo sapiens, UniProt P10109); assay: In vitro Fe-S cluster assembly assay with reduced FDX1; assay type: biochemical; settings: reduced FDX1 as reductant; 5x and 10x stoichiometry relative to ISCU and FDX1
T1 construct: made in house
T1 sequence (P10109 62-184): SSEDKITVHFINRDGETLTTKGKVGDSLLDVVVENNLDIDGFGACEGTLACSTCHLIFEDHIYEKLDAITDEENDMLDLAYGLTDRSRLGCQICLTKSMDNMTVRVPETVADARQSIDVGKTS
Source text: Whether elesclomol can inhibit the functional activity of FDX1 in mediating the Fe—S cluster formation was also examined. […] (FIG. 47A) A “x5 concentration” as shown in FIGS. 47A-47C means that elesclomol (or isoform) was present at 5 times the concentration of the enzyme. The assay used in FIGS. 47A-47C is described in the paper Cai et al., Biochemistry, 2017, 56 (3), pp 487-499.
Fe—S clusters are generated from sulfur extracted from cysteine by the iron sulfur-cluster (ISC) core complex (NFS1-ISD11-Acp-ISCU)2 and iron. A reductant (FDX1 or FDX2) is required for Fc-S cluster biosynthesis (Lill and Muhlenhoff, 2006; Py and Barras, 2010) (FIG. 53A). […]
Protein Expression and Purification—Unlabeled samples of ISCU, unlabeled (NFS1-ISD11-Acp)2 (abbreviated as SDA), unlabeled and [U-^15N]-FDX1 (truncated first 61 amino acids) and unlabeled FDX2 were produced and purified as described previously (Cai et al., 2013; Cai et al., 2017a; Cai et al., 20176). […] The reduction of FDX1 or FDX2 was monitored by the color change from dark brown to light pink and by recording IN/vis spectra before and after reduction. […]
In vitro Fe—S cluster assembly assay—The in vitro Fe—S cluster assembly assays were carried out as follows. […] The growth of absorbance at 456 nm was used to monitor the assembly of [2Fe-2S] clusters.

[5] = test system: MM.1S tumors; assay: MM.1S luciferase multiple myeloma model in SCID mice; assay type: in vivo, mouse; settings: elesclomol 28mg/kg with bortezomib 0.25mg/kg
Protocol: FIGS. 54A-54D: Inhibiting the glycolysis-OXPHOS shift with elesclomol is beneficial to proteasome inhibitor treatment in a mouse model of multiple myeloma. (FIG. 54A) provides a schematic of the experimental outline. Mice were injected with MM .'S luciferase expressing cells. Upon tumor formation as judged by BLI signal intensity, treatment with elesclomol (28mg/kg), bortezomib (0.25mg/kg) or the combination (Combo) was initiated (day 0). At day 15, elesclomol was added to the treatment of one of the aroups that had received only bortezomib from day 0 to day 15 (combo-delayed group). […] N=5 per aroup. *** p<0.001.
FIGS. 60A-60B: Inhibiting the glycolysis-OXPHOS shift, with elesclomol is beneficial to proteasome inhibitor treatment in a mouse model of multiple myeloma.

With CC1(C)CCC(c2ccc(Cl)cc2)=C(CN2CCN(c3ccc(C(=O)NS(=O)(=O)c4ccc(N[C@H](CCN5CCOCC5)CSc5ccccc5)c(S(=O)(=O)C(F)(F)F)c4)cc3)CC2)C1 [ABT-263, navitoclax] the “toxicity at lower concentrations than 1 uM” value [1] was “a similar level of toxicity was observed”.

For CC(C)C[C@H](NC(=O)[C@H](Cc1ccccc1)NC(=O)c1cnccn1)B(O)O [bortezomib], the “potency of inhibition of the β5-subunit” value [2] is listed as “low nanomolar potency” and the “shift of surviving population toward PSMD2 shRNA cells” value [3] is listed as “substantially shifted the populations of surviving cells”.

For CN(NC(=O)CC(=O)NN(C)C(=S)c1ccccc1)C(=S)c1ccccc1 [elesclomol], the “inhibition of in vitro Fe-S cluster assembly” value [4] was “sufficient to induce an inhibitory effect; also recorded: progressively inhibited” and the “effect on proteasome inhibitor treatment in a mouse model of multiple myeloma” value [5] was “beneficial”.
